Tests used:
Type in all cases: functional, cell-based
MCF7 = assay: Cytotoxicity against human MCF7 cells after 72 hrs by WST-8 assay; details: MCF7, 72 h
SK-BR-3 = assay: Cytotoxicity against human SK-BR-3 cells after 72 hrs by WST-8 assay; details: SK-BR-3, 72 h
PC-3 = assay: Cytotoxicity against human PC3 cells after 72 hrs by WST-8 assay; details: PC-3, 72 h
[1] = Cytotoxicity against human COLO320DM cells after 72 hrs by WST-8 assay; details: COLO 320DM

Compound	IC50 (MCF7) [µM]	IC50 (SK-BR-3) [µM]	IC50 (PC-3) [µM]	IC50 [1] [µM]
COc1cc2c(c3c1C(C)(C)C(C)O3)C(=O)CC(c1ccccc1)O2 (configuration not stated)	29.5	14	10.4	18.6
COc1cc(O)c2c(c1CC=C(C)C)OC(c1ccccc1)CC2=O (configuration not stated)	30.3	34.4	35.3	24.2
COc1cc(O)c2c(c1)O[C@H](c1ccccc1)CC2=O [PINOSTROBIN]	84.9	94.3	86.7	> 100
